Test results taken from patent US9725442B2, “Heterocyclic derivative having PGD2 receptor antagonist activity” (Shionogi & Co., Ltd., priority 2011, dated 2017).

Columns and labels:
[1] = Solubility test (1% DMSO addition, artificial intestinal juice pH 6.8); format: physicochemical; settings: fassgf or other biorelevant, kinetic from dmso stock, artificial intestinal juice pH 6.8, 16 hours at 25° C.
Experimental: A 10 mmol/L solution of the compound of the present invention is prepared with DMSO, and 6 μL of the compound solution is added to 594 μL of an artificial intestinal juice (water and 118 mL of 0.2 mol/L NaOH reagent are added to 250 mL of 0.2 mol/L potassium dihydrogen phosphate reagent to reach 1000 mL) with a pH of 6.8. The mixture is left standing for 16 hours at 25° C., and the mixture is vacuum-filtered. The filtrate is two-fold diluted with methanol/water=1/1 (V/V), and the compound concentration in the filtrate is measured with HPLC or LC/MS/MS by the absolute calibration method.

[2] = Metabolism stability test; format: in vitro ADME; settings: human liver microsomes, 30 minutes, 37° C., NADPH, 0.5 μmol/L of the compound
Experimental: Using a commercially available pooled human hepatic microsomes, a compound of the present invention was reacted for a constant time, a remaining rate was calculated by comparing a reacted sample and an unreacted sample, thereby, a degree of metabolism in liver was assessed.
A reaction was performed (oxidative reaction) at 37° C. for 0 minute or 30 minutes in the presence of 1 mmol/L NADPH in 0.2 mL of a buffer (50 mmol/L Tris-HCl pH 7.4, 150 mmol/L potassium chloride, 10 mmol/L magnesium chloride) containing 0.5 mg protein/mL of human liver microsomes. After the reaction, 50 μL of the reaction mixture was added to 100 μL of a methanol/acetonitrile=1/1 (v/v), mixed and centrifuged at 3000 rpm for 15 minutes. The compound of the present invention in the supernatant was quantified by LC/MS/MS, and a remaining amount of the compound of the present invention after the reaction was calculated, letting a compound amount at 0 minute reaction time to be 100%. Glucuronidation reaction was in the presence of 5 mM UDP-glucuronic acid in place of NADPH, followed by similar operations.

Human DP1 receptor = Human DP1 receptor (Homo sapiens (Human), UniProt Q13258); test: Human DP1 inhibitory activity in DP1-expressing cell (PGD2-induced cAMP); format: cell-based
Experimental: Compounds were categorized as AA (cAMP is less than 100 nM) and A (cAMP is more than 100 nM and less than 5000 nM) as shown in Table 99 and 100.

CRTH2 = CRTH2 (Homo sapiens (Human), UniProt Q9Y5Y4); test: CRTH2 inhibitory activity in CRTH2-expressing cells (PGD2-induced intracellular calcium increase, K562); format: cell-based; settings: 200 nM PGD2, read-out: IC50, inhibition of intracellular calcium concentration increase induced by PGD2
Experimental: CRTH2 inhibitory activities of compounds were determined as inhibition activity of intra-cellular calcium concentration increase induced by PGD2 in CRTH2-expressing cells.
CRTH2-expressing K562 cells were suspended at concentration of 2×10^6 cells/ml in buffer (10 mM HEPES, pH 7.4, 0.1% Bovine serum albumin). Cells were incubated with […] (4 μM) for 30 min at room temperature. Cells were washed, resuspended and mixed with various concentration of compounds of the present invention. After 2 min, cells were treated with 200 nM of PGD2. Then intracellular calcium concentration was measured using intracellular ion analyzer (FDSS3000). Inhibition ratio was defined by comparing intracellular calcium concentration increase with and without compound, and IC50 for each compound was calculated from inhibitory curve.

CYP2C19 = CYP2C19 (Homo sapiens (Human), UniProt P33261); test: CYP inhibition test, mephenyloin 4'-hydroxylation; format: in vitro ADME; settings: pooled human hepatic microsome, 50 μmol/L S-mephenyloin
Excerpt: (§1) Using commercially available pooled human hepatic microsome, and employing, as markers, 7-ethoxyresorufin O-deethylation (CYP1A2), tolbutamide methyl-hydroxylation (CYP2C9), mephenyloin 4′-hydroxylation (CYP2C19), dextromethorphan O-demethylation (CYP2D6), and terfenedine hydroxylation as typical substrate metabolism reactions of human main five CYP enzyme forms (CYP1A2, 2C9, 2C19, 2D6, 3A4), an inhibitory degree of each metabolite production amount by a compound of the present compound was assessed.
(§2) The reaction conditions were as follows: substrate, 0.5 μmol/L ethoxyresorufin (CYP1A2), 100 μmol/L tolbutamide (CYP2C9), 50 μmol/L S-mephenyloin (CYP2C19), 5 μmol/L dextromethorphan (CYP2D6), 1 μmol/L terfenedine (CYP3A4); reaction time, 15 minutes; reaction temperature, 37° C.; enzyme, pooled human hepatic microsome 0.2 mg protein/mL; concentration of a compound of the present invention, 1, 5, 10, 20 μmol/L (four points).
(§3) Each five kinds of substrates, human hepatic microsome, or a compound of the present invention in 50 mM Hepes buffer as a reaction mixture was added to a 96-well plate at the composition as described above, NADPH, as a cofactor was added to initiate metabolism reactions as markers and. After the incubation at 37° C. for 15 minutes, a methanol/acetonitrile=1/1 (v/v) solution was added to stop the reaction. After the centrifugation at 3000 rpm for 15 minutes, resorufin (CYP1A2 metabolite) in the supernatant was quantified by a fluorescent multilabel counter and tolbutamide hydroxide (CYP2C9 metabolite), mephenyloin 4′ hydroxide (CYP2C19 metabolite), dextrorphan (CYP2D6 metabolite), and terfenadine alcohol (CYP3A4 metabolite) were quantified by LC/MS/MS.

CYP2C9 = CYP2C9 (Homo sapiens (Human), UniProt P11712); test: CYP inhibition test, tolbutamide methyl-hydroxylation; format: in vitro ADME; settings: pooled human hepatic microsome, 100 μmol/L tolbutamide
Excerpt: as §1, §2, §3

CYP2D6 = CYP2D6 (Homo sapiens (Human), UniProt P10635); test: CYP inhibition test, dextromethorphan O-demethylation; format: in vitro ADME; settings: pooled human hepatic microsome, 5 μmol/L dextromethorphan
Excerpt: as §1, §2, §3

CYP3A4 = CYP3A4 (Homo sapiens (Human), UniProt P08684); test: CYP inhibition test, terfenedine hydroxylation; format: in vitro ADME; settings: pooled human hepatic microsome, 1 μmol/L terfenedine
Excerpt: as §1, §2, §3

DP receptor = DP receptor (Homo sapiens (Human), UniProt Q13258); test: DP inhibitory activity in human platelets (PGD2-induced cAMP increase in platelet rich plasma, HTRF); format: cell-based; settings: IC50 of PGD2 (300 nM)-induced cAMP increase, read-out: PRP
Experimental: Thirty milliliter of blood was drown from healthy human into a syringe preloaded with 1/9 volume of 3.8% citrate sodium. The blood was centrifuged with 180 g for 10 min at room temperature and the upper plasma layer was collected as platelet rich plasma (PRP). The PRP was transferred to plate and treated with 3-isobutyl-1-methylxanthin (IBMX; […]) for 5 min. Then the compounds of the present invention were added to the plate and after 10 min, 300 nM of PGD2 was added. The reaction was stopped with 1 mmol/l hydrogenchlolide after 2 min of PGD2 addition, and platelet was lysed by adding 12% Triton X-100. The concentration of cAMP in the supernatant of the platelet lysate was quantified using homogenous time resolved fluorescence (HTRF). Inhibition ratio was defined by cAMP increase with and without compound, and […] for each compound was calculated from inhibitory curve.

[3] = category of cAMP IC50, human DP1 receptor expressing Jurkut cell
[4] = IC50 of PGD2 (60 nM)-induced cAMP increase, human DP1 receptor expressing Jurkut cell

Sequence of CYP2D6 (P10635 whole entry): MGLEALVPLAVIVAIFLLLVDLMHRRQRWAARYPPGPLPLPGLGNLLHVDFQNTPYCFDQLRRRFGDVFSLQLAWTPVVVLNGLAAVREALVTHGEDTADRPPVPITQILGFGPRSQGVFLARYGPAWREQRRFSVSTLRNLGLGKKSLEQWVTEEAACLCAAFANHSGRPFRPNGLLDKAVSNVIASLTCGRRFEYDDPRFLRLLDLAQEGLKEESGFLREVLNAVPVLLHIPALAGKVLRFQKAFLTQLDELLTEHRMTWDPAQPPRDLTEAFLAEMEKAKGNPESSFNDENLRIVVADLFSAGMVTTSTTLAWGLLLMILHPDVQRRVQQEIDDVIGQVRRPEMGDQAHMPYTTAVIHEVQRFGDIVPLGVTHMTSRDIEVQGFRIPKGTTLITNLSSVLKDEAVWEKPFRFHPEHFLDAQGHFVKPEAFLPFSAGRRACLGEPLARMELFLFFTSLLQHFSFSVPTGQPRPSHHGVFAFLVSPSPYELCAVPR
Sequence of Human DP1 receptor (Q13258 whole entry): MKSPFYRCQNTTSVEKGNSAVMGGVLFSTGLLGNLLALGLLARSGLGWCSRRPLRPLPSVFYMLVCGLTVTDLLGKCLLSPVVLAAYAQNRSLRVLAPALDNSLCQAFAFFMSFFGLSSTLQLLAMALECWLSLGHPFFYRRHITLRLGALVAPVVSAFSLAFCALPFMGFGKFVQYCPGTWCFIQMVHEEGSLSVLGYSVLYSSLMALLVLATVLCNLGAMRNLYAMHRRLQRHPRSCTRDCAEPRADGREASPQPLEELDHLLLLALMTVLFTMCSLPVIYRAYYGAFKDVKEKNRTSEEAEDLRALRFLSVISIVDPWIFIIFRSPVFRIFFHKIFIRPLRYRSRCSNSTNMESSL
Sequence of DP receptor (Q13258 whole entry): as above
Sequence of CYP2C19 (P33261 whole entry): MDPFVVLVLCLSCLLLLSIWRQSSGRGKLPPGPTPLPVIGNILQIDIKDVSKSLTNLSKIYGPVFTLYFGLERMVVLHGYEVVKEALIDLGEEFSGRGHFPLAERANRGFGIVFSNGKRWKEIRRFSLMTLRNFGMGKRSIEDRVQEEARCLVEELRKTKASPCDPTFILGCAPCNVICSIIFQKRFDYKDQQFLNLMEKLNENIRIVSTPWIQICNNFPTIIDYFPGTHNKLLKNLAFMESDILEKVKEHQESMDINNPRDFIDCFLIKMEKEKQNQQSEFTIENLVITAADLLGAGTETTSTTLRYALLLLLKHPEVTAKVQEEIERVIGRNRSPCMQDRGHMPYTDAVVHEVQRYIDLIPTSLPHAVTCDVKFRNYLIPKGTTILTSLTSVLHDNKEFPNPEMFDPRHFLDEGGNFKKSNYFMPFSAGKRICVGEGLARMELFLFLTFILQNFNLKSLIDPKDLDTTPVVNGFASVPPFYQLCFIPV
Sequence of CRTH2 (Q9Y5Y4 whole entry): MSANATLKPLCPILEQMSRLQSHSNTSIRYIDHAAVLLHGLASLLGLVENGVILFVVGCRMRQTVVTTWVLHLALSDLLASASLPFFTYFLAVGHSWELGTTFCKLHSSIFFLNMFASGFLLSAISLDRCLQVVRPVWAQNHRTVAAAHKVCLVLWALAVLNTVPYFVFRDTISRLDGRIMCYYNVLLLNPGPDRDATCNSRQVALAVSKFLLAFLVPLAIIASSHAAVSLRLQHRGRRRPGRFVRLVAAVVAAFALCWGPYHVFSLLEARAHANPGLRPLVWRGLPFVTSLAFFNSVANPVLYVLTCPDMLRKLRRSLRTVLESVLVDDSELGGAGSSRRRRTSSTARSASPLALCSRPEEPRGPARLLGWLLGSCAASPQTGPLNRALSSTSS
Sequence of CYP3A4 (P08684 whole entry): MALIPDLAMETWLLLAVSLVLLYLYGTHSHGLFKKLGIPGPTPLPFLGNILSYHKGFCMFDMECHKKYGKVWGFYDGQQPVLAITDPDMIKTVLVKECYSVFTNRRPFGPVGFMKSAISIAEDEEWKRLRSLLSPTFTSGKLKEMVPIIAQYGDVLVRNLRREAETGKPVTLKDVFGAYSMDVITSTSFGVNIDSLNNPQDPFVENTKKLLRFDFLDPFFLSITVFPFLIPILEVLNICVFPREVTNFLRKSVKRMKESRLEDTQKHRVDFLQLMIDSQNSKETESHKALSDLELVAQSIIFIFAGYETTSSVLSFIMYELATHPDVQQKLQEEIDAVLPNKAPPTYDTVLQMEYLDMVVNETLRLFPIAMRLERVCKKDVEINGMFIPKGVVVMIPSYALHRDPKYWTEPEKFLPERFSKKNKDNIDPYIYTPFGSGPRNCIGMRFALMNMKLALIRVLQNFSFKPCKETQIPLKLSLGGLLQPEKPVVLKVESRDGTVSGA
Sequence of CYP2C9 (P11712 whole entry): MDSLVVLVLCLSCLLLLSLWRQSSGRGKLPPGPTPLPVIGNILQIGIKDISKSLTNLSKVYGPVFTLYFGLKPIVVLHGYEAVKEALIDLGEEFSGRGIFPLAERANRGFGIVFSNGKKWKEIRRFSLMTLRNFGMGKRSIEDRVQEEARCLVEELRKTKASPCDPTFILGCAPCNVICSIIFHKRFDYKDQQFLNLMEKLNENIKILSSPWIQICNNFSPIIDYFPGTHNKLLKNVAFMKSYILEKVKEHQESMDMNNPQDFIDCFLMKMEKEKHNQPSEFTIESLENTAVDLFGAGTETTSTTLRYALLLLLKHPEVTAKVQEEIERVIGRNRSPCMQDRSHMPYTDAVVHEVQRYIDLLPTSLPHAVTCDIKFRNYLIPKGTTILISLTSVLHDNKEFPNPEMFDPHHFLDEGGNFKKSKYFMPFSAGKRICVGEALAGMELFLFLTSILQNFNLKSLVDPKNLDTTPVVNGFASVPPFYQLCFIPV

solubility at 16 h [1]	remaining rate after reaction (result heading prints '% inhibition') [2]	IC50 (Human DP1 receptor; [3])	IC50 (CRTH2)	IC50 (CYP2C19)	IC50 (CYP2C9)	IC50 (CYP2D6)	IC50 (CYP3A4)	IC50 (Human DP1 receptor; [4])	IC50 (DP receptor)	Structure (SMILES)
> 50 µM	86.9%	< 0.1 µM	0.21 µM	> 20 µM	> 20 µM	> 20 µM	> 20 µM	–	–	CC(C)Oc1ccc(S(=O)(=O)N2C[C@@H](C)[C@@H](n3nc(CC(=O)O)c4ccc(F)cc43)C2)cn1 [Compound I-57]
> 50 µM	–	< 0.1 µM	0.05 µM	> 20 µM	> 20 µM	> 20 µM	> 20 µM	0.01 µM	0.071 µM	CC(C)Oc1ccc(S(=O)(=O)N2C[C@@H](C)[C@@H](n3nc(CC(=O)O)c4ccc(F)cc43)C2)cc1 [Compound I-37]
> 50 µM	99.3%	< 0.1 µM	0.23 µM	> 20 µM	> 20 µM	> 20 µM	> 20 µM	0.04 µM	0.068 µM	CCOc1ccc(S(=O)(=O)N2C[C@@H](C)[C@@H](n3nc(CC(=O)O)c4ccccc43)C2)cn1 [Compound I-96]
> 50 µM	97.2%	< 0.1 µM	0.14 µM	> 20 µM	> 20 µM	> 20 µM	> 20 µM	–	–	CC(C)Oc1ccc(S(=O)(=O)N2C[C@@H](C)[C@@H](n3nc(CC(=O)O)c4ccc(F)cc43)C2)c(F)c1 [Compound I-52]
> 50 µM	–	< 0.1 µM	0.033 µM	> 20 µM	> 20 µM	> 20 µM	> 20 µM	0.023 µM	0.026 µM	CC(C)Oc1ccc(S(=O)(=O)N2C[C@H](n3nc(CC(=O)O)c4ccc(F)cc43)C[C@H]2C#N)cc1 [Compound I-7]
